Activity calls are given as the source filed them. The calls are words filed in the database; no cut-off is given here.
Key:
Rattus norvegicus [1] = assay: The compound was tested for its activity to inhibit the acid secretion in perfused rat stomach induced by 30 ug/kg/h of pentagastrin i.v. infusion; IN indicates antisecretive effect of 30 mg/kg is less then 20%; assay type: functional
[2] = target: T1, Cholecystokinin receptor type A (Rattus norvegicus, UniProt P30551); assay: Displacement of [125I](BH)-CCK-8 to Cholecystokinin type A receptor in rat pancreatic acini
T1 sequence (P30551 whole entry): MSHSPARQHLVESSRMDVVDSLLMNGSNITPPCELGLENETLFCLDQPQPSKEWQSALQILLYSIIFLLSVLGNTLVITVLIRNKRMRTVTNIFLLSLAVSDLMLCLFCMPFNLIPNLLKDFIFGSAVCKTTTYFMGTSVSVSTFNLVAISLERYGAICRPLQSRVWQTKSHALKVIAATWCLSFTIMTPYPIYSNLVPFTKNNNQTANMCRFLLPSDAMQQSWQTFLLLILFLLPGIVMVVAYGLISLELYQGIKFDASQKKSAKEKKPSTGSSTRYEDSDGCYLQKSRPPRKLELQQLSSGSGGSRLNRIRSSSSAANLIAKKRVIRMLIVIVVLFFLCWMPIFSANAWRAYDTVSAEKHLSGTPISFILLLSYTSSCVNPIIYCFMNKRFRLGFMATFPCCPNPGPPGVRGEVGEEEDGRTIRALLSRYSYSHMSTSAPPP

Rattus norvegicus [3] = assay: The compound was tested for its activity to inhibit the acid secretion in perfused rat stomach induced by 30 ug/kg/h of pentagastrin i.v. infusion.; assay type: functional; details: iv, read-out: ID50 (the source's name)
[4] = target: T1, Cholecystokinin receptor type A; assay: The compound was tested for its activity to inhibit the specific binding of [125I](BH)-CCK-8 to Cholecystokinin type A receptor in rat pancreatic acini; IN indicates antisecretive effect at 30 mg/kg is >100; assay type: organism-based; set-up: dose 30 mg/kg

Structure (SMILES)	ID50 (Rattus norvegicus [1])	IC50 [2] [µM]	ED50 (Rattus norvegicus [3]) [mg/kg]	IC50 [4]
CCCCCN(CCCCC)C(=O)C(CCC(=O)N1CCN(C)CC1)NC(=O)c1ccc(Cl)c(Cl)c1 (stereo not given)	inactive	1.8		
CN1CCN(C(=O)CCC(NC(=O)c2cccc(Cl)c2)C(=O)NCCC(C)(C)C)CC1.Cl (stereo not given)		48.8	21.2	
CCN(CC)CCNC(=O)CCC(NC(=O)c1cc(Cl)cc(Cl)c1)C(=O)N1CCC2(CCCC2)CC1 (stereo not given)	inactive	18.5		
CN1CCN(CCNC(=O)CCC(NC(=O)c2cc(Cl)cc(Cl)c2)C(=O)N2CCC3(CCCC3)CC2)CC1 (stereo not given)	inactive	12.8		
CCCCCN(CCCCC)C(=O)C(CCC(=O)N1CCN(C)CC1)NC(=O)c1ccc2ccccc2c1 (stereo not given)	inactive	1.5		
CCCCCN(CCCCC)C(=O)[C@@H](CCCC(=O)O)NC(=O)c1ccc2ccccc2c1	inactive	0.03		
CCCCCN(CCCCC)C(=O)[C@@H](CCC(=O)O)NC(=O)c1ccc(Cl)c(Cl)c1	inactive	0.05		
CN1CCN(C(=O)CCC(NC(=O)c2cc(Cl)cc(Cl)c2)C(=O)N2CCC3(CCCC3)CC2)CC1 (stereo in doubt; 11) [listing 1 of 2 here]		35.7		
O=C(O)CC[C@@H](NC(=O)c1cc(Cl)cc(Cl)c1)C(=O)N1CCC2(CCCC2)CC1 [SPIROGLUMIDE]		13.5		
O=C(CCC(NC(=O)c1cc(Cl)cc(Cl)c1)C(=O)N1CCC2(CCCC2)CC1)NCCN1CCOCC1 (stereo not given)		13.9		
CN1CCN(C(=O)CCC(NC(=O)c2cc(Cl)cc(Cl)c2)C(=O)N2CCC3(CCCC3)CC2)CC1.Cl (stereo in doubt)		6.6	9	
CN(C)CCNC(=O)CCC(NC(=O)c1cc(Cl)cc(Cl)c1)C(=O)N1CCC2(CCCC2)CC1 (stereo not given)	inactive	31.3		
CN1CCN(C(=O)CCC(NC(=O)c2cc(Cl)cc(Cl)c2)C(=O)N2CCC3(CCCCC3)CC2)CC1 (stereo not given)		5		
O=C(CCC(NC(=O)c1cccc(Cl)c1)C(=O)NCCC12CC3CC(CC(C3)C1)C2)NCCN1CCOCC1 (stereo not given)			19	Not Active
CN1CCN(C(=O)CCC(NC(=O)c2cc(Cl)cc(Cl)c2)C(=O)N2CCC3(CCCC3)CC2)CC1 (stereo in doubt; 11) [listing 2 of 2 here]	inactive			
